Here are results for six molecules from DBAASP.

Some test systems named below: Vibrio cholerae N16961; Klebsiella pneumoniae; Staphylococcus aureus; Escherichia coli D31; Micrococcus luteus A270; Candida albicans MDM8; Escherichia coli SBS 363; Escherichia coli UB1005.
Common to all, as to assay: ≥ marks a high value that may be exact or a test limit, other limits are often not marked, values filed in µg/mL are converted to µM
The subject of assay [1] is Enterococcus faecalis PCM 2673.
Assay [2] has as its system Escherichia coli ATCC 25922.
The subject of assay [3] is Staphylococcus aureus ATCC 25923.
Assay [4] deals with Pseudomonas aeruginosa ATCC 9027.
Assay [5] concerns Candida albicans ATCC 10231.
In assay [6] the test system is Streptococcus mutans ATCC 25175.
The subject of assay [7] is Pseudomonas aeruginosa ATCC 15442.
For assay [8], the system named is Candida tropicalis IOC 4560.
Assay [9] deals with Escherichia coli NCTC 12923.
Assay [10] relates to Klebsiella pneumoniae NCTC 13368.
Assay [11] relates to Staphylococcus aureus USA 300.
In assay [12] the test system is Staphylococcus aureus ATCC 29213.
For assay [13], the system named is Pseudomonas aeruginosa NCTC 13437.
Assay [14] has as its system Bacillus subtilis ATCC 6633.
Assay [15] has as its system Staphylococcus aureus ATCC 9144.
For assay [16], the system named is Pseudomonas aeruginosa NCIB 10421.
The test system of assay [17] is Pseudomonas aeruginosa PAO1.
Assay [18] concerns Bacillus megaterium ATCC 10778.
Assay [19] has as its system Serratia marcescens ATCC 4112.
In assay [20] the test system is Enterobacter cloacae beta-12.
For assay [21], the system named is Acinetobacter baumannii ATCC 17978.
Assay [22] deals with Salmonella enterica subsp. enterica serovar Typhimurium C77-31.
Assay [23] has as its system Salmonella enterica subsp. enterica serovar Typhimurium ATCC 14028.
In assay [24] the test system is Salmonella enterica subsp. enterica serovar Typhi CMCC 50071.
Assay [25] relates to Staphylococcus epidermidis ATCC 12228.
For assay [26], the system named is Salmonella enterica subsp. enterica serovar Pullorum C79-13.
Assay [27] relates to Candida albicans ATCC 90028.
For assay [28], the system named is Candida parapsilosis ATCC 22019.
In assay [29] the test system is Streptococcus pyogenes ATCC 19615.
Assay [30] has as its system Listeria ivanovii Li 4pVS2.
Assay [31] relates to Klebsiella pneumoniae ATCC 13883.
Assay [32] relates to Pseudomonas aeruginosa ATCC 27853.
Assay [33] concerns Enterococcus faecalis ATCC 29212.
The subject of assay [34] is Acinetobacter baumannii ATCC 19606.

Molecules are shown by their SMILES. Converted amounts (≈) assume the structure as drawn. “And” between values parts separate entries of the source, which are not always exact repeats. Equal entries are not always repeated. Some results are limits rather than exact numbers.

As for `CC[C@H](C)[C@H](NC(=O)[C@H](CCCCN)NC(=O)[C@H](CCCCN)NC(=O)[C@@H](NC(=O)[C@@H](NC(=O)[C@H](CC(=O)O)NC(=O)[C@H](Cc1ccccc1)NC(=O)[C@H](C)NC(=O)CN)[C@@H](C)CC)[C@@H](C)CC)C(=O)N[C@@H](C)C(=O)N[C@@H](CCC(=O)O)C(=O)N[C@@H](CO)C(=O)N[C@@H](Cc1ccccc1)C(N)=O` [GAFDIIKKIAESF], the MIC in assay [1] is at least 356 µM; in assay [2], 178 µM (≈ 256 µg/mL); in assay [3], above 356 µM; in [4] it was 356 µM (≈ 512 µg/mL); in assay [5], 178 µM (≈ 256 µg/mL).
In the case of `CC[C@H](C)[C@H](NC(=O)CNC(=O)[C@H](CC(C)C)NC(=O)[C@H](CC(C)C)NC(=O)[C@H](C)NC(=O)[C@H](CO)NC(=O)[C@H](CCCCN)NC(=O)[C@@H](NC(=O)CN)[C@@H](C)CC)C(=O)N[C@@H](C)C(=O)N[C@@H](CCCCN)C(=O)N[C@@H](CC(N)=O)C(=O)N[C@H](C(=O)NCC(=O)N[C@@H](CCSC)C(=O)N[C@@H](CO)C(=O)N[C@@H](CC(C)C)C(=O)N[C@@H](CC(C)C)C(=O)N[C@@H](CCC(N)=O)C(=O)N[C@@H](CCCCN)C(=O)N[C@@H](C)C(=O)N[C@@H](CCC(N)=O)C(=O)N[C@H]1CSSC[C@@H](C(N)=O)NC(=O)[C@H](CO)NC(=O)CNC(=O)[C@H](CO)NC(=O)[C@H](CC(C)C)NC(=O)[C@H](CCCCN)NC1=O)C(C)C` [GIKSALLGIAKNVGMSLLQKAQCKLSGSC], the MIC is 10 µM (≈ 29.2 µg/mL) with Vibrio cholerae N16961; 8 µM (≈ 23.3 µg/mL) against Klebsiella pneumoniae; 16 µM (≈ 46.7 µg/mL) with Staphylococcus aureus; 8 µM and 22 µM in assay [3].
Consider `CC[C@H](C)[C@H](NC(=O)[C@@H](NC(=O)CN)C(C)C)C(=O)N[C@H](C(=O)N[C@@H](CC(=O)O)C(=O)N[C@@H](C)C(=O)N[C@@H](CC(C)C)C(=O)N[C@@H](CCCCN)C(=O)NCC(=O)N[C@@H](C)C(=O)N[C@@H](C)C(=O)N[C@@H](CCCCN)C(=O)N[C@H](C(=O)N[C@H](C(=O)N[C@@H](C)C(=O)N[C@@H](C)C(=O)N[C@@H](CCC(=O)O)C(=O)N[C@@H](CC(C)C)C(=O)N1CCC[C@H]1C(=O)N[C@@H](CCCN=C(N)N)C(=O)N[C@@H](CCCCN)C(=O)N[C@@H](C)C(=O)N[C@@H](Cc1cnc[nH]1)C(N)=O)C(C)C)[C@@H](C)O)[C@@H](C)O` [GVITDALKGAAKTVAAELPRKAH], for which the MIC in [6] was at least 100 µM; in [3], above 100 µM; in the assay with Escherichia coli D31 it was at least 100 µM; in assay [5] it was above 100 µM; in assay [7], at least 100 µM.
Regarding `CC[C@H](C)[C@H](N)C(=O)N[C@@H](CC(C)C)C(=O)N[C@@H](CCCCN)C(=O)N[C@@H](CCCCN)C(=O)N[C@H](C(=O)N[C@@H](Cc1c[nH]c2ccccc12)C(=O)N[C@@H](CCC(=O)O)C(=O)NCC(=O)N[C@H](C(=O)N[C@@H](CCCCN)C(=O)N[C@@H](CO)C(=O)N[C@@H](CC(C)C)C(=O)N[C@@H](Cc1ccccc1)C(N)=O)[C@@H](C)CC)[C@@H](C)CC` [ILKKIWEGIKSLF], the MIC in [8] was 0.78 µM (≈ 1.23 µg/mL); in assay [9] it was 5.08 µM (≈ 8 µg/mL); against Micrococcus luteus A270 it was 0.78 µM (≈ 1.23 µg/mL); in [10], 10.2 µM (≈ 16 µg/mL); in assay [11] it was 10.2 µM (≈ 16 µg/mL); in [12] it was 1.56 µM (≈ 2.46 µg/mL). The MIC is at least 40.6 µM in [13]; 0.78 µM (≈ 1.23 µg/mL) in [14]; 1.56 µM (≈ 2.46 µg/mL) against Candida albicans MDM8; 0.78 µM (≈ 1.23 µg/mL) against Escherichia coli SBS 363; 5.08 µM (≈ 8 µg/mL) in [15]; 6.25 µM (≈ 9.84 µg/mL) in assay [16]. Moreover, the MIC in [17] is above 81.3 µM; in assay [18], 0.78 µM (≈ 1.23 µg/mL); in assay [19] it was 0.36 µM (≈ 0.567 µg/mL); in [20], 3.13 µM (≈ 4.93 µg/mL); in assay [21] it was 2.54 µM (≈ 4 µg/mL).
For the molecule `CSCC[C@H](NC(=O)[C@H](CCCN=C(N)N)NC(=O)[C@H](Cc1c[nH]c2ccccc12)NC(=O)[C@H](CCC(N)=O)NC(=O)[C@H](Cc1c[nH]c2ccccc12)NC(=O)[C@H](CCCN=C(N)N)NC(=O)[C@H](CCCN=C(N)N)NC(=O)[C@H](CS)NC(=O)[C@@H](N)CCCCN)C(=O)N[C@@H](CCCCN)C(=O)N[C@@H](CCCCN)C(N)=O` [KCRRWQWRMKK], the MIC in assay [22] was at least 128 µM; in assay [23], above 128 µM; in assay [12], above 128 µM; in assay [3] it was 128 µM (≈ 205 µg/mL); against Escherichia coli UB1005, at least 128 µM; in [24], at least 128 µM. For the same molecule, the figures for the MIC in [25] and in assay [26] were above 128 µM and at least 128 µM, respectively.
For `CC[C@H](C)[C@H](NC(=O)[C@H](CCCN=C(N)N)NC(=O)[C@H](Cc1ccc(O)cc1)NC(=O)CNC(=O)[C@H](Cc1ccc(O)cc1)NC(=O)[C@H](CCCN=C(N)N)NC(=O)[C@H](CC(C)C)NC(=O)[C@H](C)NC(=O)[C@H](CCC(N)=O)NC(=O)[C@H](CCC(=O)O)NC(=O)[C@@H](NC(=O)[C@H](CCC(N)=O)NC(=O)[C@H](CCCN=C(N)N)NC(=O)[C@H](CCSC)NC(=O)[C@H](Cc1ccc(O)cc1)NC(=O)[C@H](CCC(N)=O)NC(=O)[C@@H](N)CCCN=C(N)N)[C@@H](C)CC)C(=O)N[C@@H](CO)C(=O)N[C@@H](CCCN=C(N)N)C(=O)N[C@@H](CCCN=C(N)N)C(N)=O` [RQYMRQIEQALRYGYRISRR], the MIC in assay [27] is at least 200 µM; in assay [28] it was at least 50 µM; in [29], at least 50 µM; in assay [2], 6.25 µM (≈ 16.5 µg/mL); in assay [3], 100 µM (≈ 264 µg/mL); in [30] it was at least 50 µM. For the same molecule, the MIC is at least 80 µM in assay [31], 25 µM (≈ 66.1 µg/mL) in [32], above 100 µM in assay [33] and 6.25 µM (≈ 16.5 µg/mL) in assay [34].
